Laboratory results taken from patent US12252524B2, “GIP/GLP1 co-agonist compounds” (Eli Lilly and Company, priority 2018, dated 2025).
Numbered stars: 1 amine (or outer) side, 2 acyl side, 3 side chain; on linkers, the order of the positions; unused ones are H or OH. Square brackets hold non-standard residues; d marks the D form. Side chains are listed from the residue outwards. Peptide text beside a SMILES is read from it. * marks the point of attachment. C20 diacid = O=C(O)CCCCCCCCCCCCCCCCCCC(=O)*; C18 diacid = O=C(O)CCCCCCCCCCCCCCCCC(=O)*; αMePhe(2-F) = C[C@](N)(Cc1ccccc1F)C(=O)O; γGlu = O=C(O)[C@H](CCC(=O)[*:2])N[*:1]; αMeL = CC(C)C[C@](C)(N)C(=O)O; AEEA = NCCOCCOCC(=O)O; Aib = CC(C)(N)C(=O)O

Legend:
[1] = biological target: human GLP-1R (Homo sapiens, UniProt P43220); assay: [125I]-GLP-1 binding (SPA), human GLP-1 receptor; parameters: expressed in transfected cells; crude membranes; conditions: read-out: hGLP1R Ki, (nM) (SEM, n)
Sequence of human GLP-1R (P43220 24-463): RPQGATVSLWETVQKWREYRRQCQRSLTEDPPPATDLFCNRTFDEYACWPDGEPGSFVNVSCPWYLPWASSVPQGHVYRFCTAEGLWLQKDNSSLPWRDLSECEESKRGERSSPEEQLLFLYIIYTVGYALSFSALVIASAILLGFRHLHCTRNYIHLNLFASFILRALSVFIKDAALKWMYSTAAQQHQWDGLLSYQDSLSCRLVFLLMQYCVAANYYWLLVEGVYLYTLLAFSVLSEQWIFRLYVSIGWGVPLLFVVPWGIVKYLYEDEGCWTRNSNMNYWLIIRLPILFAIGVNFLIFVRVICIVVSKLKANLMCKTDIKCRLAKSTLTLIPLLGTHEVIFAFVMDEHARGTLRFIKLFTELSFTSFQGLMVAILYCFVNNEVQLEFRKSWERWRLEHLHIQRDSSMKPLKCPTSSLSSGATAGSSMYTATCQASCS
Method in brief: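 Membranes: hypotonic lysis (50 mM Tris HCl, pH 7.5, protease inhibitors), Potter-Elvehjem homogenization, high-speed pellet (35000×g 1 h or 25000×g 30 min, 4° C.). Buffer: 25 mM HEPES pH 7.4, 2.5 mM CaCl2, 1 mM MgCl2. Four-parameter IC50 fit; Ki as geometric mean ± SEM.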

[2] = biological target: T1, gastric inhibitory peptide receptor (GIPR) (Homo sapiens, UniProt P48546); assay: cAMP pharmacological functional assay in presence of casein, hGIPR; type: cell-based; conditions: HEK293 cells expressing hGIPR, 0.1% Casein, geometric mean; read-out: hGIPR cAMP Rel EC50 nM (SEM, n)
T1 sequence (P48546 22-466): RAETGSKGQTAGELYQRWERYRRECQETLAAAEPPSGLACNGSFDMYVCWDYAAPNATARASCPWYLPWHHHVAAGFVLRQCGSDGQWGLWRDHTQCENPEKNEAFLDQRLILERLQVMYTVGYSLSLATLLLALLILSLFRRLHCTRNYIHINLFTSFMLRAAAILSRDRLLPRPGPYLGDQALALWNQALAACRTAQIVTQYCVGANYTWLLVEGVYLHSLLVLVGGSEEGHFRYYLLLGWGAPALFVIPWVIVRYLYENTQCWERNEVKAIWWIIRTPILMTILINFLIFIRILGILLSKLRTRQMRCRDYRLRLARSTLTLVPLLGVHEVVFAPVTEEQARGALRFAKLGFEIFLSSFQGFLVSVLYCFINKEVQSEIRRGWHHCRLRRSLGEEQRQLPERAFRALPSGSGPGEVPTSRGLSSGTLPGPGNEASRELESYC

[3] = biological target: human GLP-1 receptor (GLP-1R) (Homo sapiens, UniProt P43220); assay: cAMP pharmacological functional assay in presence of casein, hGLP-1R; type: cell-based; conditions: HEK293 cells expressing hGLP-1R, 0.1% Casein, geometric mean; read-out: hGLP1R cAMP Rel EC50 nM (SEM, n)
Sequence of human GLP-1 receptor (GLP-1R) (P43220 24-463): as the sequence (P43220 24-463) above

[4] = biological target: T2, human GIP receptor (Homo sapiens, UniProt P48546); assay: [125I]-GIP binding (SPA), human GIP receptor; conditions: read-out: hGIPR Ki, nM (SEM, n)
T2 construct: expressed in transfected cells; crude membranes
T2 sequence (P48546 22-466): T1 sequence (P48546 22-466)

[5] = biological target: T3, human Gcg receptor (Homo sapiens, UniProt P47871); assay: [125I]-Glucagon binding (SPA), human Gcg receptor; conditions: read-out: hGLcgR Ki, nM (SEM, n)
T3 construct: expressed in transfected cells; crude membranes
T3 sequence (P47871 26-477): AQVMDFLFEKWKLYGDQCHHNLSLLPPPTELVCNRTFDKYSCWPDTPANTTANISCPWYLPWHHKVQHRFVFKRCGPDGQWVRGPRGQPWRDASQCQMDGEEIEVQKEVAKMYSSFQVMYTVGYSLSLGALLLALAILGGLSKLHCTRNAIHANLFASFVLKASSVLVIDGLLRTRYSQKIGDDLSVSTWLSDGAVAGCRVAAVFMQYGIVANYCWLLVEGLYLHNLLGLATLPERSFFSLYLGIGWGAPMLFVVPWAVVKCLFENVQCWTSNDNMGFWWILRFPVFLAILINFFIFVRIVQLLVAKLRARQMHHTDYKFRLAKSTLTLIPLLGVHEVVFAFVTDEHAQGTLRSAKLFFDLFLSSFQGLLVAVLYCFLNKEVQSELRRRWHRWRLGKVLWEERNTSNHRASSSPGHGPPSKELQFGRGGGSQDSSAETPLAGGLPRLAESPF
Method in brief: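 Scintillation counts are taken after membranes and WGA beads incubate and settle for 12 hours at room temperature. Buffer is 25 mM HEPES, pH 7.4, with CaCl2, MgCl2, bacitracin and Tween-20. Ki values, from four-parameter IC50 fits, are geometric means over independent days.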

SMILES | Ki [1] | EC50 [2] | EC50 [3] | Ki [4] | Ki [5]
CC[C@H](C)[C@H](NC(=O)[C@H](CCCCN)NC(=O)[C@H](CC(=O)O)NC(=O)[C@H](CC(C)C)NC(=O)[C@H](CC(C)C)NC(=O)[C@@H](NC(=O)[C@H](CO)NC(=O)[C@H](Cc1ccc(O)cc1)NC(=O)[C@H](CC(=O)O)NC(=O)[C@H](CO)NC(=O)[C@@H](NC(=O)[C@H](Cc1ccccc1)NC(=O)[C@@H](NC(=O)CNC(=O)[C@H](CCC(=O)O)NC(=O)C(C)(C)NC(=O)[C@@H](N)Cc1ccc(O)cc1)[C@@H](C)O)[C@@H](C)O)[C@@H](C)CC)C(=O)N[C@@H](C)C(=O)N[C@@H](CCC(N)=O)C(=O)NC(C)(C)C(=O)N[C@@H](C)C(=O)N[C@@H](Cc1ccccc1)C(=O)N[C@H](C(=O)N[C@@H](CCC(=O)O)C(=O)N[C@@H](Cc1ccc(O)cc1)C(=O)N[C@@H](CC(C)C)C(=O)N[C@H](C(=O)N[C@@H](CCC(=O)O)C(=O)NCC(=O)NCC(=O)N1CCC[C@H]1C(=O)N[C@@H](CO)C(=O)N[C@@H](CO)C(=O)NCC(=O)N[C@@H](CCCCNC(=O)COCCOCCNC(=O)COCCOCCNC(=O)CC[C@H](NC(=O)CCCCCCCCCCCCCCCCCCC(=O)O)C(=O)O)C(=O)N1CCC[C@H]1C(=O)N1CCC[C@H]1C(=O)N1CCC[C@H]1C(=O)N[C@@H](CO)C(N)=O)[C@@H](C)CC)[C@@H](C)CC [Example 44] (H-Y[Aib]EGTFTSDYSILLDKIAQ[Aib]AFIEYLIEGGPSSGK([AEEA-AEEA-γGlu-C20 diacid])PPPS-NH2) | 10.6 nM | 0.128 nM | 0.752 nM | 0.0516 nM | 121 nM
CC[C@H](C)[C@H](NC(=O)[C@H](CC(C)C)NC(=O)[C@H](Cc1ccc(O)cc1)NC(=O)[C@H](CCC(=O)O)NC(=O)[C@@H](NC(=O)[C@H](Cc1ccccc1)NC(=O)[C@H](C)NC(=O)[C@H](Cc1c[nH]cn1)NC(=O)[C@H](CCC(N)=O)NC(=O)[C@H](C)NC(=O)[C@H](CCCCNC(=O)COCCOCCNC(=O)COCCOCCNC(=O)CC[C@H](NC(=O)CCCCCCCCCCCCCCCCCCC(=O)O)C(=O)O)NC(=O)[C@H](CCC(=O)O)NC(=O)[C@H](CC(=O)O)NC(=O)[C@H](CC(C)C)NC(=O)[C@](C)(CC(C)C)NC(=O)[C@@H](NC(=O)[C@H](CO)NC(=O)[C@H](Cc1ccc(O)cc1)NC(=O)[C@H](CC(=O)O)NC(=O)[C@H](CO)NC(=O)[C@@H](NC(=O)[C@H](Cc1ccccc1)NC(=O)[C@@H](NC(=O)CNC(=O)[C@H](CCC(=O)O)NC(=O)C(C)(C)NC(=O)[C@@H](N)Cc1c[nH]cn1)[C@@H](C)O)[C@@H](C)O)[C@@H](C)CC)[C@@H](C)CC)C(=O)N[C@@H](CCC(=O)O)C(=O)NCC(=O)NCC(=O)N1CCC[C@H]1C(=O)N[C@@H](CO)C(=O)N[C@@H](CO)C(=O)NCC(=O)N[C@@H](C)C(=O)N1CCC[C@H]1C(=O)N1CCC[C@H]1C(=O)N1CCC[C@H]1C(=O)N[C@@H](CO)C(N)=O [Example 55] (H-H[Aib]EGTFTSDYSI[αMeL]LDEK([AEEA-AEEA-γGlu-C20 diacid])AQHAFIEYLIEGGPSSGAPPPS-NH2) | 7.29 nM | 5.45 nM | 0.0286 nM | 6.24 nM | > 1100 nM
CC[C@H](C)[C@H](NC(=O)[C@H](CC(C)C)NC(=O)[C@H](Cc1ccc(O)cc1)NC(=O)[C@H](CCC(=O)O)NC(=O)[C@@H](NC(=O)[C@H](Cc1ccccc1)NC(=O)[C@H](C)NC(=O)[C@H](CCCCN)NC(=O)[C@H](CCC(N)=O)NC(=O)[C@H](C)NC(=O)[C@H](CCCCNC(=O)COCCOCCNC(=O)COCCOCCNC(=O)CC[C@H](NC(=O)CCCCCCCCCCCCCCCCC(=O)O)C(=O)O)NC(=O)[C@H](CCCCN)NC(=O)[C@H](CC(=O)O)NC(=O)[C@H](CC(C)C)NC(=O)[C@H](CC(C)C)NC(=O)[C@@H](NC(=O)[C@H](CO)NC(=O)[C@H](Cc1ccc(O)cc1)NC(=O)[C@H](CC(=O)O)NC(=O)[C@H](CO)NC(=O)[C@@H](NC(=O)[C@H](Cc1ccccc1)NC(=O)[C@@H](NC(=O)CNC(=O)[C@H](CCC(=O)O)NC(=O)C(C)(C)NC(=O)[C@@H](N)Cc1ccc(O)cc1)[C@@H](C)O)[C@@H](C)O)[C@@H](C)CC)[C@@H](C)CC)C(=O)N[C@@H](CCC(=O)O)C(=O)NCC(=O)NCC(=O)N1CCC[C@H]1C(=O)N[C@@H](CO)C(=O)N[C@@H](CO)C(=O)NCC(N)=O [Example 296] (H-Y[Aib]EGTFTSDYSILLDKK([AEEA-AEEA-γGlu-C18 diacid])AQKAFIEYLIEGGPSSG-NH2) | 3.33 nM | 0.198 nM | 0.0867 nM | 0.444 nM | > 1000 nM
CC[C@H](C)[C@H](NC(=O)[C@H](CC(C)C)NC(=O)[C@H](Cc1ccc(O)cc1)NC(=O)[C@H](CCC(=O)O)NC(=O)[C@@H](NC(=O)[C@H](Cc1ccccc1)NC(=O)[C@H](CC(=O)O)NC(=O)C(C)(C)NC(=O)[C@H](CCC(N)=O)NC(=O)[C@H](C)NC(=O)[C@H](CCCCNC(=O)COCCOCCNC(=O)COCCOCCNC(=O)CC[C@H](NC(=O)CCCCCCCCCCCCCCCCC(=O)O)C(=O)O)NC(=O)[C@H](CCCCN)NC(=O)[C@H](CC(=O)O)NC(=O)[C@H](CC(C)C)NC(=O)[C@H](CC(C)C)NC(=O)[C@@H](NC(=O)[C@H](CO)NC(=O)[C@H](Cc1ccc(O)cc1)NC(=O)[C@H](CC(=O)O)NC(=O)[C@H](CO)NC(=O)[C@@H](NC(=O)[C@H](Cc1ccccc1)NC(=O)[C@@H](NC(=O)CNC(=O)[C@H](CCC(=O)O)NC(=O)C(C)(C)NC(=O)[C@@H](N)Cc1ccc(O)cc1)[C@@H](C)O)[C@@H](C)O)[C@@H](C)CC)[C@@H](C)CC)C(=O)N[C@@H](CCC(=O)O)C(=O)NCC(=O)NCC(=O)N1CCC[C@H]1C(=O)N[C@@H](CO)C(=O)N[C@@H](CO)C(=O)NCC(N)=O [Example 320] (H-Y[Aib]EGTFTSDYSILLDKK([AEEA-AEEA-γGlu-C18 diacid])AQ[Aib]DFIEYLIEGGPSSG-NH2; N-terminus assumed) | 5.17 nM | 0.161 nM | 0.397 nM | 0.136 nM | > 1040 nM
CC[C@H](C)[C@H](NC(=O)[C@H](CC(C)C)NC(=O)[C@H](Cc1ccc(O)cc1)NC(=O)[C@H](CCC(=O)O)NC(=O)[C@@H](NC(=O)[C@H](Cc1ccccc1)NC(=O)[C@H](CCC(=O)O)NC(=O)C(C)(C)NC(=O)[C@H](CCC(N)=O)NC(=O)[C@H](C)NC(=O)[C@H](CCCCNC(=O)COCCOCCNC(=O)COCCOCCNC(=O)CC[C@H](NC(=O)CCCCCCCCCCCCCCCCC(=O)O)C(=O)O)NC(=O)[C@H](CCCCN)NC(=O)[C@H](CC(=O)O)NC(=O)[C@H](CC(C)C)NC(=O)[C@H](CC(C)C)NC(=O)[C@@H](NC(=O)[C@H](CO)NC(=O)[C@H](Cc1ccc(O)cc1)NC(=O)[C@H](CC(=O)O)NC(=O)[C@H](CO)NC(=O)[C@@H](NC(=O)[C@](C)(Cc1ccccc1F)NC(=O)[C@@H](NC(=O)CNC(=O)[C@H](CCC(=O)O)NC(=O)C(C)(C)NC(=O)[C@@H](N)Cc1ccc(O)cc1)[C@@H](C)O)[C@@H](C)O)[C@@H](C)CC)[C@@H](C)CC)C(=O)N[C@@H](CCC(=O)O)C(=O)NCC(=O)NCC(=O)N1CCC[C@H]1C(=O)N[C@@H](CO)C(=O)N[C@@H](CO)C(=O)NCC(N)=O [Example 312] (H-Y[Aib]EGT[αMePhe(2-F)]TSDYSILLDKK([AEEA-AEEA-γGlu-C18 diacid])AQ[Aib]EFIEYLIEGGPSSG-NH2) | 1.63 nM | 0.0207 nM | 0.0262 nM | 0.0348 nM | 106 nM
CC[C@H](C)[C@H](NC(=O)[C@H](CC(C)C)NC(=O)[C@H](Cc1ccc(O)cc1)NC(=O)[C@H](CCC(=O)O)NC(=O)[C@@H](NC(=O)[C@H](Cc1ccccc1)NC(=O)[C@H](C)NC(=O)[C@H](CCCCNC(=O)COCCOCCNC(=O)COCCOCCNC(=O)CC[C@H](NC(=O)CCCCCCCCCCCCCCCCCCC(=O)O)C(=O)O)NC(=O)[C@H](CCC(N)=O)NC(=O)[C@H](C)NC(=O)[C@@H](NC(=O)C(C)(C)NC(=O)[C@H](CC(=O)O)NC(=O)[C@H](CC(C)C)NC(=O)[C@H](CC(C)C)NC(=O)[C@@H](NC(=O)[C@H](CO)NC(=O)[C@H](Cc1ccc(O)cc1)NC(=O)[C@H](CC(=O)O)NC(=O)[C@H](CO)NC(=O)[C@@H](NC(=O)[C@H](Cc1ccccc1)NC(=O)[C@@H](NC(=O)CNC(=O)[C@H](CCC(=O)O)NC(=O)C(C)(C)NC(=O)[C@@H](N)Cc1ccc(O)cc1)[C@@H](C)O)[C@@H](C)O)[C@@H](C)CC)[C@@H](C)CC)[C@@H](C)CC)C(=O)N[C@@H](CCC(=O)O)C(=O)NCC(=O)NCC(=O)N1CCC[C@H]1C(=O)N[C@@H](CO)C(=O)N[C@@H](CO)C(=O)NCC(=O)N[C@@H](C)C(=O)N1CCC[C@H]1C(=O)N1CCC[C@H]1C(=O)N1CCC[C@H]1C(=O)N[C@@H](CO)C(N)=O [Example 13] (H-Y[Aib]EGTFTSDYSILLD[Aib]IAQK([AEEA-AEEA-γGlu-C20 diacid])AFIEYLIEGGPSSGAPPPS-NH2) | 31.1 nM | 1.05 nM | 5.39 nM | 0.296 nM | > 1060 nM
